What was measured:
HCV polymerase = molecular target: T1, HCV polymerase (Hepatitis C virus genotype 1b, UniProt Q9WMX2); experiment: Polymerase assay of Biological Example 1 (IC50 values of Table 3); type: biochemical; conditions: IC50 values of Table 3, polymerase assay of Biological Example 1; read-out: NS5B-enzyme3
T1 construct: (His)6 (C); made in house; host or cells: XL-1 cells (E. coli, by own knowledge)

[1] = tested on: HCV replicon I389luc-ubi-neo/NS3-3′/ET in ET (Huh-lucubineo-ET) cells; experiment: Replicon assay (Biological Example 2), luciferase readout; type: cell-based; conditions: Hepatitis C virus
Summary of the method: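 EC50 values come from Hill fits of % inhibition of replicon-driven firefly luciferase, relative to no-compound wells. Compounds were serially diluted (10 points, 3-fold, 0.1 nM–50 μM final, 0.5% DMSO) onto ET replicon cells and read after 48 h.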

[2] = ET cells, luciferase activity 48 hours after compound

| SMILES | IC50 (HCV polymerase) | IC50 [1, 2] | IC50 ([1]; between 100 nM and 5.0 uM) |
| --- | --- | --- | --- |
| COc1cc(S(=O)(=O)N2CC(=O)N(c3cc(C#CC(C)(C)C)sc3C(=O)O)[C@H](C3CCCCC3)C2)ccc1F [Compound 283, 3-[(R)-2-Cyclohexyl-4-(4-fluoro-3-methoxy-benzenesulfonyl)-6-oxo-piperazin-1-yl]-5-(3,3-dimethyl-but-1-ynyl)-thiophene-2-carboxylic acid] | 4 nM | ≤ 100 nM |  |
| Cc1ccc(-c2cc(N3C(=O)CN(S(=O)(=O)c4cnn(CC(C)C)c4)C[C@H]3C3CCCCC3)c(C(=O)O)s2)cc1 [Compound 301, 3-[(R)-2-Cyclohexyl-4-(1-isobutyl-1H-pyrazole-4-sulfonyl)-6-oxo-piperazin-1-yl]-5-p-tolyl-thiophene-2-carboxylic acid] | 4 nM | ≤ 100 nM |  |
| Cc1ccc(-c2cc(N3C(=O)CN(S(=O)(=O)c4ccc(C(F)(F)F)nc4)C[C@H]3C3CCCCC3)c(C(=O)O)s2)cc1 [Compound 300, 3-[(R)-2-Cyclohexyl-6-oxo-4-(6-trifluoromethyl-pyridine-3-sulfonyl)-piperazin-1-yl]-5-p-tolyl-thiophene-2-carboxylic acid] | 31 nM |  | 100 to 5000 nM |
| CC(C)(C)C#Cc1cc(N2C(=O)C(CCCO)CC[C@H]2C2CCCCC2)c(C(=O)O)s1 (stereo partly drawn) [Compound 339, 3-[(S)-6-Cyclohexyl-3-(3-hydroxy-propyl)-2-oxo-piperidin-1-yl]-5-(3,3-dimethyl-but-1-ynyl)-thiophene-2-carboxylic acid] | 8 nM | ≤ 100 nM |  |
| O=C(O)c1sc(-c2ccccc2)cc1N1C(=O)CN(S(=O)(=O)c2ccc(N3CCOCC3)nc2)C[C@H]1C1CCCCC1 [Compound 184, 3-[(R)-2-Cyclohexyl-4-(6-morpholin-4-yl-pyridine-3-sulfonyl)-6-oxo-piperazin-1-yl]-5-phenyl-thiophene-2-carboxylic acid] | 1.7 nM | ≤ 100 nM |  |
| CN1CCN(C(=O)c2ccc(-c3ccc(S(=O)(=O)N4CC(=O)N(c5cc(-c6ccccc6)sc5C(=O)O)[C@H](C5CCCCC5)C4)cn3)cc2)CC1 [Compound 202, 3-((R)-2-Cyclohexyl-4-{6-[4-(4-methyl-piperazine-1-carbonyl)-phenyl]-pyridine-3-sulfonyl)-6-oxo-piperazin-1-yl)-5-phenyl-thiophene-2-carboxylic acid] | 1 nM | ≤ 100 nM |  |
| O=C(O)c1sc(-c2ccc(Cl)cc2)cc1N1C(=O)CCCC1C1CCCCC1 (stereo not drawn) [Compound 73, 5-(4-Chloro-phenyl)-3-(2-cyclohexyl-6-oxo-piperidin-1-yl)-thiophene-2-carboxylic acid] | 21 nM |  | 100 to 5000 nM |
| CC(C)(C)C#Cc1cc(N2C(=O)C(CCO)CC[C@H]2C2CCCCC2)c(C(=O)O)s1 (stereo partly drawn) [Compound 342, 3-[(S)-6-Cyclohexyl-3-(2-hydroxy-ethyl)-2-oxo-piperidin-1-yl]-5-(3,3-dimethyl-but-1-ynyl)-thiophene-2-carboxylic acid] | 18 nM | ≤ 100 nM |  |
| CC(C)(C)C#Cc1cc(N2C(=O)C(N)CC[C@H]2C2CCCCC2)c(C(=O)O)s1 (stereo partly drawn) [Compound 340, 3-((S)-3-Amino-6-cyclohexyl-2-oxo-piperidin-1-yl)-5-(3,3-dimethyl-but-1-ynyl)-thiophene-2-carboxylic acid] | 8 nM | ≤ 100 nM |  |
| Cc1occc1-c1ccc(S(=O)(=O)N2CC(=O)N(c3cc(-c4ccccc4)sc3C(=O)O)[C@H](C3CCCCC3)C2)cn1 [Compound 211, 3-{(R)-2-Cyclohexyl-4-[6-(2-methyl-furan-3-yl)-pyridine-3-sulfonyl]-6-oxo-piperazin-1-yl}-5-phenyl-thiophene-2-carboxylic acid] | 2 nM |  | 100 to 5000 nM |
| C[C@@H]1CC[C@H](C)N1c1ccc(S(=O)(=O)N2CC(=O)N(c3cc(-c4ccccc4)sc3C(=O)O)[C@H](C3CCCCC3)C2)cn1 [Compound 164, 3-{(R)-2-Cyclohexyl-4-[6-((2S,5R)-2,5-dimethyl-pyrrolidin-1-yl)-pyridine-3-sulfonyl]-6-oxo-piperazin-1-yl}-5-phenyl-thiophene-2-carboxylic acid] | 1 nM | ≤ 100 nM |  |
| CC(C)(C)C#Cc1cc(N2C(=O)CN(S(=O)(=O)c3c(F)cccc3F)C[C@H]2C2CCCCC2)c(C(=O)O)s1 [Compound 251, 3-[(R)-2-Cyclohexyl-4-(2,6-difluoro-benzenesulfonyl)-6-oxo-piperazin-1-yl]-5-(3,3-dimethyl-but-1-ynyl)-thiophene-2-carboxylic acid] | 4 nM | ≤ 100 nM |  |
| CC(C)(C)C#Cc1cc(N2C(=O)CN(S(=O)(=O)c3ccc(C#N)cc3)C[C@H]2C2CCCCC2)c(C(=O)O)s1 [Compound 238, 3-[(R)-4-(4-Cyano-benzenesulfonyl)-2-cyclohexyl-6-oxo-piperazin-1-yl]-5-(3,3-dimethyl-but-1-ynyl)-thiophene-2-carboxylic acid] | 2 nM | ≤ 100 nM |  |
| CC(C)(C)C#Cc1cc(N2C(=O)C(O)CCC2C2CCCCC2)c(C(=O)O)s1 (stereo not drawn) [Compound 313, 3-(6-Cyclohexyl-3-hydroxy-2-oxo-piperidin-1-yl)-5-(3,3-dimethyl-but-1-ynyl)-thiophene-2-carboxylic acid] | 31.5 nM | ≤ 100 nM |  |
| CS(=O)(=O)N1CC(=O)N(c2cc(-c3ccccc3)sc2C(=O)O)C(C2CCCCC2)C1 (stereo not drawn) [Compound 26, 3-(2-Cyclohexyl-4-methanesulfonyl-6-oxo-piperazin-1-yl)-5-phenyl-thiophene-2-carboxylic acid] | 67 nM |  | 100 to 5000 nM |
| CC(C)(C)C#Cc1cc(N2C(=O)[C@H](CCCCO)OC[C@H]2C2CCCCC2)c(C(=O)O)s1 [Compound 338, 3-[(2S,5R)-5-Cyclohexyl-2-(4-hydroxy-butyl)-3-oxo-morpholin-4-yl]-5-(3,3-dimethyl-but-1-ynyl)-thiophene-2-carboxylic acid] | 31 nM |  | 100 to 5000 nM |
| COC1CCN(c2ccc(S(=O)(=O)N3CC(=O)N(c4cc(-c5ccccc5)sc4C(=O)O)C(C4CCCCC4)C3)cn2)CC1 (stereo not drawn) [Compound 94, 3-[2-Cyclohexyl-4-(4-methoxy-3,4,5,6-tetrahydro-2H-[1,2′]bipyridinyl-5′-sulfonyl)-6-oxo-piperazin-1-yl]-5-phenyl-thiophene-2-carboxylic acid] | 2 nM | ≤ 100 nM |  |
| CCc1ccc(S(=O)(=O)N2CC(=O)N(c3cc(C#CC(C)(C)C)sc3C(=O)O)[C@H](C3CCCCC3)C2)cc1 [Compound 256, 3-[(R)-2-Cyclohexyl-4-(4-ethyl-benzenesulfonyl)-6-oxo-piperazin-1-yl]-5-(3,3-dimethyl-but-1-ynyl)-thiophene-2-carboxylic acid] | 1 nM | ≤ 100 nM |  |
| Cc1ccc(CN2CC(=O)N(c3cc(C#CC(C)(C)C)sc3C(=O)O)C(C3CCCCC3)C2)cc1 (stereo not drawn) [Compound 174, 3-[2-Cyclohexyl-4-(4-methyl-benzyl)-6-oxo-piperazin-1-yl]-5-(3,3-dimethyl-but-1-ynyl)-thiophene-2-carboxylic acid] | 5110 nM | ≥ 5000 nM |  |
| CC(C)(C)C#Cc1cc(N2C(=O)COC[C@H]2C2CCCCC2)c(C(=O)NS(C)(=O)=O)s1 [Compound 309, N-[3-((R)-3-Cyclohexyl-5-oxo-morpholin-4-yl)-5-(3,3-dimethyl-but-1-ynyl)-thiophene-2-carbonyl]-methanesulfonamide] | 54 nM |  | 100 to 5000 nM |
| O=C(O)c1sc(-c2ccccc2)cc1N1C(=O)CN(S(=O)(=O)c2cnc(N3CCCC3)c(Cl)c2)C[C@H]1C1CCCCC1 [Compound 169] | 3 nM | ≤ 100 nM |  |
| CCC1CCCN1c1ccc(S(=O)(=O)N2CC(=O)N(c3cc(-c4ccccc4)sc3C(=O)O)[C@H](C3CCCCC3)C2)cn1 (stereo partly drawn) [Compound 154, 3-{(R)-2-Cyclohexyl-4-[6-(2-ethyl-pyrrolidin-1-yl)-pyridine-3-sulfonyl]-6-oxo-piperazin-1-yl}-5-phenyl-thiophene-2-carboxylic acid] | 3 nM | ≤ 100 nM |  |
| CCOc1ccc(-c2cc(N3C(=O)CCCC3C3CCCCC3)c(C(=O)O)s2)cc1 (stereo not drawn) [Compound 116, 3-(2-Cyclohexyl-6-oxo-piperidin-1-yl)-5-(4-ethoxy-phenyl)-thiophene-2-carboxylic acid] | 64 nM |  | 100 to 5000 nM |
| Cn1nccc1S(=O)(=O)N1CC(=O)N(c2cc(C#CC(C)(C)C)sc2C(=O)O)[C@H](C2CCCCC2)C1 [Compound 254, 3-[(R)-2-Cyclohexyl-4-(2-methyl-2H-pyrazole-3-sulfonyl)-6-oxo-piperazin-1-yl]-5-(3,3-dimethyl-but-1-ynyl)-thiophene-2-carboxylic acid] | 15 nM |  | 100 to 5000 nM |
| O=C(O)c1sc(-c2ccccc2)cc1N1C(=O)CN(S(=O)(=O)c2ccc(N3CCCC3)nc2)C[C@H]1C1CCCCC1 [Compound 135, 3-[(R)-2-Cyclohexyl-6-oxo-4-(6-pyrrolidin-1-yl-pyridine-3-sulfonyl)-piperazin-1-yl]-5-phenyl-thiophene-2-carboxylic acid] | 2.33 nM | ≤ 100 nM |  |
| NCC1CCN(c2ccc(S(=O)(=O)N3CC(=O)N(c4cc(-c5ccccc5)sc4C(=O)O)[C@H](C4CCCCC4)C3)cn2)CC1 [Compound 143, 3-[(R)-4-(4-Aminomethyl-3,4,5,6-tetrahydro-2H-[1,2′]bipyridinyl-5′-sulfonyl)-2-cyclohexyl-6-oxo-piperazin-1-yl]-5-phenyl-thiophene-2-carboxylic acid] | 1.9 nM | ≤ 100 nM |  |
| O=C(O)c1sc(-c2ccccc2)cc1N1C(=O)CN(Cc2ccccc2)C[C@H]1C1CCCCC1 [Compound 17, 3-((R)-4-Benzyl-2-cyclohexyl-6-oxo-piperazin-1-yl)-5-phenyl-thiophene-2-carboxylic acid] | 24 nM |  | 100 to 5000 nM |

From US9498483B2, “2,3,5-trisubstituted thiophene compounds and uses thereof” (priority 2010, dated 2016)
